Here are results for one compound from patent US9422308B2, “Derivatives of docosahexaenoylethanolamide and uses thereof” (The United States of America, as represented by the …, priority 2012, dated 2016).

One data set concerns the target T1, FAAH (Homo sapiens, UniProt O00519).
T1 sequence (O00519 1-579): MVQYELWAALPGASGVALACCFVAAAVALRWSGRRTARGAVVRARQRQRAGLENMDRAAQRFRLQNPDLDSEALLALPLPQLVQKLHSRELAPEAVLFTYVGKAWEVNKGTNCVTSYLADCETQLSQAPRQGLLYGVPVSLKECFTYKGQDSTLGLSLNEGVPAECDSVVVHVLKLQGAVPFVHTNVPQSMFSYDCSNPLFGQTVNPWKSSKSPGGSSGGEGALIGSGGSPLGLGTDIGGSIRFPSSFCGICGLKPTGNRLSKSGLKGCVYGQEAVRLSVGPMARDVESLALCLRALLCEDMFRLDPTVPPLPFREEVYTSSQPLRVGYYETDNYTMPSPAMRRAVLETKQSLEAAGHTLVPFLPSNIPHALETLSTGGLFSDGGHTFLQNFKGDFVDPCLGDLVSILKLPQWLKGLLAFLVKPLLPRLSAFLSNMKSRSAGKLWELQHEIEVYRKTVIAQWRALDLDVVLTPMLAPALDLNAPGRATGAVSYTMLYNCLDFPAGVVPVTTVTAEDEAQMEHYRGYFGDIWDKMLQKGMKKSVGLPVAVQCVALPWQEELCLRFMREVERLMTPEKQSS
In words: time course FAAH enzyme assay. The format is in vitro ADME. Conditions: for % remaining: 1 mM, pH 9. The protocol:
Method development: The signal was optimized for each compound by ESI positive or negative ionization mode. A MS2 SIM scan was used to optimize the precursor ion and a product ion analysis was used to identify the best fragment for analysis and to optimize the collision energy.
Analysis: Samples were analyzed by LC/MS/MS using a API 3000 coupled with an Shimadzu HPLC and a CTC PAL chilled autosampler, all […] controlled by Analyst software (ABI). After separation on a C18 reverse phase HPLC column (Agilent, Waters, or equivalent). Mobile phase A was 0.1% AcOH in water. Mobile phase B was 0.1% AcOH in methanol. The flow rate was 0.6 mL/min. The gradient program included a 0.5 min hold at 30% B (the starting conditions), followed by a gradient to 100% B over 2.5 min and a 1 min hold at 100% B. The column was then returned to starting conditions and equilibrated over 1.25 min.
Assay Protocol: Assays were performed at 37° C. at pH=9.0 and involved the use of 0.1 U of FAAH. […] Reaction was terminated after an appropriate time by using protein precipitation treatment with acetonitrile (3:1, v/v).

The test system of a further data set is neural stem cells. Briefly: neuronal and glial differentiation of neural stem cells (MAP2/GFAP immunofluorescence). The format is cell-based, rats. The settings on record: 7 days, differentiating NSCs. The protocol:
Fetal neural stem cell culture: Neural stern cells (NSCs) were cultured by the neurosphere method (Rietze R. L., Reynolds B. A. (2006) Neural stem cell isolation and characterization. Methods Enzymol. 419, 3-23, the method incorporated by reference herein) with slight modification. Forebrain cortices of rats were isolated on embryonic day 14.5 and 12.5, respectively. The cortices were mechanically disrupted into single cells by repeated pipetting in a serum-free conditioned medium (N2 medium) containing DMEM/F12 (1:1), 0.6% (wt/vol) glucose, 0.1125% (wt/vol) sodium bicarbonate, 2 mM L-glutamine, 5 mM HEPES, 100 μg/mL human apo-transferrin, 20 nM progesterone, 30 nM sodium selenite, 60 μM putrescine, and 25 μg/mL insulin. The dissociated cells were cultured in 6 cm dishes at a density of 1×10^5 cells/mL in N2 medium with 20 ng/mL bFGF and 2 μg/mL heparin in a humidified 5% CO2/95% air incubator at 37° C. Within 3-4 days, the cells grew as free-floating neurospheres that were then collected by centrifugation, mechanically dissociated by pipetting, and passaged.
Differentiation of NSCs: After the second passage, nestin- and SOX2-positive NSCs were enriched in the neurosphere with minimal presence of differentiated cells (MAP2, Tuj-1 and GFAP-positive cells). After the second passage neurospheres were mechanically dissociated and 5×10^5 cells/mL were plated onto 15 μg/mL poly-L-ornithine coated 6- or 24-well plates in N2 medium without bFGF and heparin to initiate the differentiation. The cultures were then treated with N2 medium containing A8 in the presence of 40 μM vitamin E for 1-7 days. As the vehicle control, N2 medium containing 40 μM vitamin E was used.
Immunofluorescence staining: For immunofluorescence staining, 2.5×10^5 NSCs were cultured in 0.5 mL media. […] Finally, the cells were mounted with 80% (vol/vol) glycerol, visualized under a fluorescence microscope and the image data were processed using MetaMorph software for quantitative information. The number of MAP2- and GFAP-positive cells were counted from three separate wells with three to six random fields per well. […]

Regarding `CC/C=C\C/C=C\C/C=C\C/C=C\C/C=C\C/C=C\CCC(=O)NCC(C)(C)O` [Compound 1, (4Z,7Z,10Z,13Z,16Z,19Z)—N-(2-hydroxy-2-methylpropyl)docosa-4,7,10,13,16,19-hexaenamide], the “susceptibility to hydrolysis by FAAH” value on FAAH is on record as “less susceptible to hydrolysis by FAAH than synaptamide or AEA”. Moreover, the “% remaining” value at FAAH (0 h) came out at 99%; on FAAH (0.5 h) it was 101%; on FAAH (1 h) it was 85%. Moreover, the MAP2 positive cells with neural stem cells (1 nM, control 7.0±0.8, p=0.02) amounted to 10.8±1.8%. For the same compound, the “differentiation into GFAP positive cells” value with neural stem cells (1-100 nM range) is “not affected”. Also, the “MAP2 positive cells (maximum effect)” value with neural stem cells (around 10 nM, p=0.007) came to 17.2±4.1%.
